Measurements taken from patent US20210393742A1, “LONG-ACTING INTERLEUKIN-15 RECEPTOR AGONIST IN COMBINATION WITH ANOTHER PHARMACOLOGICALLY ACTIVE AGENT” (Nektar Therapeutics, priority 2018, published 2021).

Legend:
[1] = test system: human multiple myeloma RPMI-8226 cells; assay: ADCC of daratumumab-coated target cells by primed human NK cells (Example 12); format: cell-based; conditions: NK cells primed with 300 ng/mL overnight; daratumumab 1 μg/mL; E:T 10:1, 3 hours
Description: (§1) Human NK cells were magnetically sorted from normal donor PBMCs using negative selection. NK cells were seeded in a 96-well U-bottom plate at a density of 80,000 cells/well (FIG. 15A) OR 400,000 cells/well (FIG. 15B). NK cells were stimulated with 300 ng/mL of a long-acting IL-15 receptor agonist (mono(mPEG-butanamide)IL-15) (+) or left unstimulated (−) in complete RPMI-1640 media supplemented with 10% fetal bovine serum (FBS) and 1% antibiotic/antimycotic overnight at 37° C. in 5% CO2.
The human multiple myeloma RPMI-8226 cells (ATCC #CCL-155) were washed in PBS and stained with 0.15 μM CFSE for 5 min at 37° C. The stimulated NK cells (effector cells) and the daratumumab-coated (+1 μg/mL) CFSE-labeled tumor cells (target cells) were concurrently co-cultured in an E:T ratio of 10:1 for 3 hours at 37° C. in 5% CO2. Following incubation, cells were washed in flow staining buffer, Fc-blocked for 15 min at 4° C., and surface-stained (CD45, CD56, CD3-fluorescently conjugated antibodies). The cells were washed in PBS and incubated in 7-aminoactinomycin (7-AAD) viability stain for 30 minutes at 4° C. before acquiring for flow cytometric analysis using a Fortessa (BD). The percentage of 7-AAD+ CFSE+ target cells from total cell population is the percentage for dead tumor cells.

[2] = test system: Daudi B cell lymphoma; assay: NK cell counts, Daudi cell counts and granzyme B in bone marrow, Daudi xenograft model, combination with daratumumab (Example 2); format: in vivo, mice
Description: SCID mice (N=6/group) were intravenously inoculated with 1×10^7 Daudi cells on Day 0 and treated with a single dose of the anti-human CD38 antibody, daratumumab (0.5 mg/kg IP, 14 days following Daudi cell inoculation) and two doses of mono(methoxyPEG-N-butanamide)interleukin-15 (0.3 mg/kg SC, one dose at each of 14 and 21 days after inoculation). Mice were also treated with the single agent therapies: daratumumab (0.5 mg/kg IP, 14 days following Daudi cell inoculation) or two doses of mono(methoxyPEG-N-butanamide)40 kD interleukin-15 (0.3 mg/kg SC, 14 and 21 days after inoculation).
(One-way ANOVA, Tukey's multiple comparison test).

[3] = test system: NK cells; assay: Granzyme B expression per cell in bone marrow NK cells of Daudi lymphoma bearing mice (Example 11); format: in vivo; conditions: bone marrow day 24; Conjugate 1 0.3 mg/kg; antibody 0.5 mg/kg
Description: (§2) Balb/c mice bearing Daudi B cell lymphoma tumors in the bone marrow (n=6/group) were intraperitoneally administered a single 0.5 mg/kg dose of the human CD38 protein targeting clinical antibody daratumumab (DARZALEX®), Janssen Biotech) or a nonspecific control antibody with a matching isotype on day 14 after Daudi cell intravenous inoculation. Additional groups were treated with (i) mono(mPEG-N-butanamide)40 kD interleukin-15 (Conjugate 1) administered subcutaneously at a dose of 0.3 mg/kg as a single agent on days 14 and 21 after Daudi cell inoculation, or (ii) a combination treatment of Conjugate 1 administered subcutaneously at doses of 0.03 mg/kg or 0.3 mg/kg on days 14 and 21 after Daudi cell inoculation and daratumumab administered intraperitoneally at a dose of 0.5 mg/kg on day 14 after Daudi cell inoculation.
(§3) Three days following the second Conjugate 1 administration (day 24 after Daudi inoculation), bone marrow was collected and the NK cell fraction was measured by flow cytometry in total bone marrow.

[4] = test system: SKOV-3 cells; assay: Tumor growth inhibition in SKOV-3 ovarian carcinoma model (Example 21); format: in vivo, mice; conditions: 35 days after treatment initiation; trastuzumab 13.5 mg/kg IV x6; Compound 1 0.3 mg/kg IV x3
Description: Tumor growth inhibition in inoculated mice was measured 35 days after treatment initiation.

[5] = test system: human B cell lymphoma (Daudi) cells; assay: ADCC of rituximab-coated target cells by primed human NK cells (Example 12); format: cell-based; conditions: NK cells primed with 300 ng/mL overnight; rituximab 10 ng/mL; E:T 2:1, 3 hr
Description: as §1
Alternatively, the human B cell lymphoma (Daudi) cells were washed in PBS and stained with 0.3 μM CFSE for 5 min at 37° C. The rituximab-coated (+10 ng/mL) CFSE-labeled tumor (target cells) cells were concurrently co-cultured with the NK cells (effector cells) in an E:T ratio of 2:1 for 3 hr at 37° C. in 5% CO2. Following incubation, cells were washed in flow staining buffer, Fc-blocked for 15 min at 4° C., and surface-stained (CD45, CD56, CD3-fluorescently conjugated antibodies). The cells were washed in PBS and incubated in 7-aminoactinomycin (7-AAD) viability stain for 30 minutes at 4° C. before acquiring for flow cytometric analysis using a Fortessa (BD). The percentage of 7-AAD+ CFSE+ target cells from total cell population is the percentage for dead tumor cells.

[6] = test system: NK cells; assay: NKG2A and NKG2D surface expression on bone marrow NK cells of Daudi lymphoma bearing mice (Example 4); format: in vivo; conditions: bone marrow day 24; Conjugate 1 0.3 mg/kg SC days 14 and 21; antibody 0.5 mg/kg IP day 14
Description: as §2, with “(DARZALEX®,” for “(DARZALEX®),”, “administered mono(methoxyPEG-N-butanamide)40” for “treated with (i) mono(mPEG-N-butanamide)40”, “1)” for “1) administered”, “administered” for “(ii)”
as §3, with “marrow. Expression of the cell surface activating receptor NKG2D and the inhibitory checkpoint receptor NKG2A are shown in FIGS. 7A and 7B, respectively.” for “marrow.”

In the case of “mono(methoxyPEG-N-butanamide)40 kD interleukin-15 [Conjugate 1]”, the “ADCC, % 7-AAD+ target cells” value [1] is reported as “enhance ADCC”, the “granzyme B expression in bone marrow NK cells” value ([2]; alone or in combination with daratumumab) is reported as “increase granzyme B expression” and the “increase in NK cell count in bone marrow” value ([2]; day 24, agonist 0.3 mg/kg SC days 14 and 21, daratumumab 0.5 mg/kg IP day 14) is reported as 10 fold. For the same substance, the “Granzyme B mean fluorescence intensity (MFI mean value)” value [3] was 2649, the “Relative Granzyme B expression compared to untreated condition” value [3] was 6.7x increase and the tumor growth inhibition [4] was “no tumor growth inhibition”. For the same substance, the “ADCC, % 7-AAD+ target cells” value [5] was “enhance ADCC”, the “% NK cells expressing NKG2A (mean, n = 6)” value [6] was 73.70% and the “% NK cells expressing NKG2D (mean, n = 6)” value [6] was 2.157%.
